Patent US20250129086A1, “COMPOUND FOR DEGRADING EGFR PROTEIN AND USE THEREOF” (TYK MEDICINES, INC., priority 2021, published 2025)

Experiments:
[1] = test system: PC-9 (EGFR exon 19 deletion); experiment: Cell antiproliferative assay (CTG, 72 h), PC-9; format: cell-based, human
Procedure, shortened: (§1)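 Viability by CTG luminescence after 72 h compound exposure, normalised between blank medium and 0.1% DMSO controls, with IC50 from fitted curves. Dosing in triplicate, top 10,000 nM, 4-fold dilutions, applied about 24 h after plating 1500-2500 cells per well.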

[2] = test system: H1975 (EGFR L858R/T790M double mutation); experiment: Cell antiproliferative assay (CTG, 72 h), H1975; format: cell-based, human
Procedure, shortened: as §1

[3] = test system: HCC827 (exon 19 deletion mutation); experiment: Cell antiproliferative assay (CTG, 72 h), HCC827; format: cell-based, human
Procedure, shortened: as §1

EGFR = molecular target: T1, EGFR (Homo sapiens, UniProt P00533, DEL746-750); experiment: EGFR PROTAC In Cell Western assay in HCC827; format: cell-based; conditions: HCC827, EGFR degradation, 16 hours of incubation
T1 construct: host or cells: HCC827
From the text: Test Example 2 EGFR PROTAC in Cell Western Assay
HCC827 cell culture medium was purchased from Corning. Cell line HCC827 was purchased from BeNa Culture Collection; EGF Receptor (D38B1) XP Rabbit mAb antibody and β-Actin (8H10D10) Mouse mAb antibody were from CST. IRDye 800CW, IRDye 680RD, and Intercept blocking solution (PBS) were purchased from Licor. Triton-100 was purchased from sigma, and 96-well black cell culture imaging microtiter plates were purchased from Agilent.
1) HCC827 cells were cell counted and cells were inoculated into 96-well black cell culture imaging microtiter plates at a density of 40,000 cells per well, with 100 μl per well. The plate was incubated overnight in a CO2 incubator.
2) Day 1: A gradient dilution of the compound to be tested was added to the cells of the culture plate (with a starting concentration of […], 9 concentrations, a dilution ratio of 1:3, 2 duplicate wells), with a final concentration of DMSO being 0.5%, and a blank control of DMSO without compound. The plate was placed in the cell culture incubator for a final 16 hours of incubation.
3) The culture medium was removed from the 96 wells with a pipette and the residual medium was washed with […] of PBS per well on a shaker for 5 min. After the removal of PBS, cells were quickly fixed by adding 150 μl of fresh fixation buffer (3.7% paraformaldehyde) and incubated for 20 min at room temperature.
4) The fixation buffer was removed and […] of Triton elution buffer (0.3% Triton-100) was added to wash for four times on a shaker for 5 minutes each time.
5)[…] LI-COR Odyssey blocking solution was added and the cells were incubated for 1.5 hours at room temperature with slow shaking on a shaker.
6) To block the samples, a primary antibody against EGFR and Actin were prepared using Antibody Dilution Buffer at a ratio of 1:300. The blocking solution was poured out and the diluted primary antibody was added (at a total volume of 50 μl/per well). The cell plate was covered and incubated at 4° C. overnight.
7) The cell plate was washed four times with PBS+Triton X-100 for 5 minutes each time.
8) Fluorescently labeled secondary antibodies IRDye® 680RD and IRDye® 800CW were diluted with Antibody Dilution Buffer (with a ratio of 1:600, at a total volume of 50 μl/well) and then incubated for one hour at room temperature, protected from light.
9) The cell plate was washed four times with PBS+Triton X-100 for 5 minutes each time.
After pipetting the PBS thoroughly, the plate was inverted and imaged on a Burroughs imager. A multiple exposure program was selected, IRDye 680RD Blot was chosen for the first channel, and IRDye 800CW Blot was chosen for the second channel. […] The blank group was the DMSO group, EGFR/Actin was calculated as the EGFR value of the corresponding sample wells, and the degradation rate=100-100*EGFR signal/DMSO signal. The DC50 and Dmax of the degraded EGFR proteins were calculated by fitting curves using the Prism software, 3-parameter method.

[4] = Homo sapiens, PC-9, 72 h, Table 2, PC-9 cells
[5] = Homo sapiens, NCI-H1975, 72 h, Table 2, H1975 cells
[6] = Homo sapiens, HCC827, 72 h, Table 2, HCC827 cells

T1 sequence (P00533 with tags, fused parts or gaps DEL746-750): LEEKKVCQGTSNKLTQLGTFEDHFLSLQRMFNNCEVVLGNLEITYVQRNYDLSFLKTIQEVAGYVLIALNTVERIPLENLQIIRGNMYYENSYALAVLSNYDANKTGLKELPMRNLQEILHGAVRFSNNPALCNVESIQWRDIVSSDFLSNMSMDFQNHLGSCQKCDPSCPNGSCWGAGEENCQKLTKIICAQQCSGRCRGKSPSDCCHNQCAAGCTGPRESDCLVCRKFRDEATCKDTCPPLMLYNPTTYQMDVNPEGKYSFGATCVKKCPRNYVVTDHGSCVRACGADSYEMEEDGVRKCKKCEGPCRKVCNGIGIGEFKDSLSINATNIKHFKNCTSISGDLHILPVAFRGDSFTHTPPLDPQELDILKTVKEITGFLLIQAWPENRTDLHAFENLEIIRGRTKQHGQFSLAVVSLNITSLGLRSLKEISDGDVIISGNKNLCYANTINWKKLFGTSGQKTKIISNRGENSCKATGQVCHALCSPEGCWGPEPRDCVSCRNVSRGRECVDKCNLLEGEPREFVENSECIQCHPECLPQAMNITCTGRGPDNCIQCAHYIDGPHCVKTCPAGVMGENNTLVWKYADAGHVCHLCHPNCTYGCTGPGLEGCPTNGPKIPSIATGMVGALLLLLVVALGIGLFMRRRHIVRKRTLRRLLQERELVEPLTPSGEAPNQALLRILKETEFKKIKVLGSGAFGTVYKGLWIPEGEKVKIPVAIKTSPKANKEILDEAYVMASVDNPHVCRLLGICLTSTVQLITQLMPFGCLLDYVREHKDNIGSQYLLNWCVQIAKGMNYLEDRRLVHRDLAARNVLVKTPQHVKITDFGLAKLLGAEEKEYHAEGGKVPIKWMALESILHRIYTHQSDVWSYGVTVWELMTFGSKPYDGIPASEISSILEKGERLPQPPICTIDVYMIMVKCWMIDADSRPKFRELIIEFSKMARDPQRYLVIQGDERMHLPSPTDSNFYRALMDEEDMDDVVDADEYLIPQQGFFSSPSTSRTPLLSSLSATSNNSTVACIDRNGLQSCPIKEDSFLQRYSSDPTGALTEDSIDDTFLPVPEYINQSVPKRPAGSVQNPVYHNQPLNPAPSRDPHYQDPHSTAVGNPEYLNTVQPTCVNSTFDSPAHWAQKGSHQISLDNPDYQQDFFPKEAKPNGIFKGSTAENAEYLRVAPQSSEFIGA

SMILES	IC50 [1, 4] [nM]	IC50 [2, 5] [nM]	IC50 [3, 6] [nM]	Dmax (EGFR; HCC827, Table 4) [%]	DC50 (EGFR; Table 4) [nM]	also measured
COc1cc(N2CCN(C(=O)CN3CCC(c4ccc(NC5CCC(=O)NC5=O)cc4)CC3)CC2)ncc1Nc1ncc(C(F)(F)F)c(Nc2ccccc2C(C)=O)n1 (stereo not shown) [Compound T-246]	10 to 100	≤ 10	10 to 100	70 to 100	≤ 10	
COc1cc(N2CCC(N3CCN(C(=O)CCCCN4CCN(c5ccc6c(c5)C(=O)N(C5CCC(=O)NC5=O)C6=O)CC4)CC3)CC2)ccc1Nc1ncc(Cl)c(Nc2ccccc2N(C)S(C)(=O)=O)n1 (stereo not shown) [Comparative Compound 3, reference compound]	100 to 1000	100 to 1000	10 to 100	50 to 70	10 to 100	IC50 ([1]; Homo sapiens, PC-9, 72 h, Table 3, PC-9 cells): 682 nM; IC50 ([2]; Homo sapiens, NCI-H1975, 72 h, Table 3, H1975 cells): 386 nM; IC50 ([3]; Homo sapiens, HCC827, 72 h, Table 3, HCC827 cells): 72.5 nM; Dmax (EGFR; HCC827, Table 5): 56.4%; DC50 (EGFR; Table 5): 15.2 nM
COc1cc(N2CCN(CCN3CCC(c4ccc(NC5CCC(=O)NC5=O)cc4)CC3)CC2)ccc1Nc1ncc(Cl)c(Nc2ccccc2C(C)=O)n1 (stereo not shown) [Compound T-182]	100 to 1000	10 to 100	100 to 1000	50 to 70	10 to 100	
COc1cc(N2C3CCC2CN(C(=O)CN2CCC(c4ccc(NC5CCC(=O)NC5=O)cc4)CC2)C3)ccc1Nc1ncc(Cl)c(Nc2ccccc2C(C)=O)n1 (stereo not shown) [Compound T-191]	100 to 1000	10 to 100	100 to 1000	50 to 70	100 to 1000	
COc1cc(N2CC3CC(C2)N3C(=O)CN2CCC(c3ccc(NC4CCC(=O)NC4=O)cc3)CC2)ccc1Nc1ncc(Cl)c(Nc2ccccc2C(C)=O)n1 (stereo not shown) [Compound T-125]	≥ 1000	100 to 1000	100 to 1000	< 50	10 to 100	
COc1cc(N2CCN(C(=O)CN3CCC(c4ccc(NC5CCC(=O)NC5=O)cc4)CC3)CC2)c(-c2cnn(C)c2)cc1Nc1ncc(Cl)c(Nc2ccccc2C(C)=O)n1 (stereo not shown) [Compound T-233]	100 to 1000	10 to 100	10 to 100	50 to 70	10 to 100	
COc1cc(N2CCN(C(=O)CN3CCC(c4ccc(NC5CCC(=O)NC5=O)cc4)CC3)CC2)ccc1Nc1ncc(Cl)c(Nc2ccccc2C(=O)N(C)C)n1 (stereo not shown) [Compound T-198]	100 to 1000	≤ 10	100 to 1000	50 to 70	≤ 10	
COc1cc(N2CCN(C(=O)CN3CCC(c4ccc(NC5CCC(=O)NC5=O)cc4)CC3)CC2)ccc1Nc1ncc(C(F)(F)F)c(Nc2ccccc2C(C)=O)n1 (stereo not shown) [Compound T-47]	100 to 1000	10 to 100	10 to 100	50 to 70	10 to 100	
COc1cc(N2CCC(N3CCN(C(=O)CN4CCC(c5ccc(NC6CCC(=O)NC6=O)cc5)CC4)CC3)CC2)ccc1Nc1ncc(Cl)c(Nc2ccccc2N(C)S(C)(=O)=O)n1 (stereo not shown) [Compound T-211]	100 to 1000	10 to 100	10 to 100	50 to 70	10 to 100	
COc1cc(N2CCC(N(C)C(=O)CN3CCC(c4ccc(NC5CCC(=O)NC5=O)cc4)CC3)CC2)ccc1Nc1ncc(C(F)(F)F)c(Nc2ccccc2C(C)=O)n1 (stereo not shown) [Compound T-224]					10 to 100	IC50 ([1]; Table 2, PC-9 cells): 100 to 1000 nM; IC50 ([2]; Table 2, H1975 cells): 10 to 100 nM; IC50 ([3]; Table 2, HCC827 cells): 100 to 1000 nM; Dmax(%) (EGFR; Table 4): C (C<50%)
COc1cc(C2CCN(C(=O)CN3CCC(c4ccc(NC5CCC(=O)NC5=O)cc4)CC3)CC2)ccc1Nc1ncc(Cl)c(Nc2ccccc2C(C)=O)n1 (stereo not shown) [Compound T-334]	100 to 1000	100 to 1000	100 to 1000	< 50	100 to 1000	
COc1cc(N2CCC(N3CCN(C(=O)CCCCN4CCC(c5ccc(NC6CCC(=O)NC6=O)cc5)CC4)CC3)CC2)ccc1Nc1ncc(Cl)c(Nc2ccccc2N(C)S(C)(=O)=O)n1 (stereo not shown) [Compound T-220]	100 to 1000	10 to 100	100 to 1000	< 50	10 to 100	
C=CC(=O)Nc1cc(Nc2ncc(Cl)c(Nc3ccccc3)n2)c(OC)cc1N1CCN(C(=O)CN2CCC(c3ccc(NC4CCC(=O)NC4=O)cc3)CC2)CC1 (stereo not shown) [Compound T-335]	100 to 1000	100 to 1000	100 to 1000	50 to 70	100 to 1000	
COc1cc(N2CCN(C(=O)CN3CCC(c4ccc(NC5CCC(=O)NC5=O)cc4)CC3)C(C)C2)ccc1Nc1ncc(Cl)c(Nc2ccccc2C(C)=O)n1 (stereo not shown) [Compound T-63]	100 to 1000	10 to 100	100 to 1000	50 to 70	100 to 1000	
COc1cc(N2CCC(N(C)C(=O)C3CCN(CC4CCN(c5ccc6c(c5)C(=O)N(C5CCC(=O)NC5=O)C6=O)CC4)CC3)CC2)ccc1Nc1ncc(Cl)c(Nc2ccccc2C(C)=O)n1 (stereo not shown) [Compound T-228]		10 to 100		< 50	100 to 1000	
COc1cc(C(=O)N2CCC(c3ccc(NC4CCC(=O)NC4=O)cc3)CC2)ccc1Nc1ncc(Cl)c(Nc2ccccc2C(C)=O)n1 (stereo not shown) [Compound T-130]				< 50	100 to 1000	
COc1cc(N2CC(NC(=O)CN3CCC(c4ccc(NC5CCC(=O)NC5=O)cc4)CC3)C2)ccc1Nc1ncc(Cl)c(Nc2ccccc2C(C)=O)n1 (stereo not shown) [Compound T-169]	100 to 1000	100 to 1000	100 to 1000	< 50	≥ 1000	
COc1cc(N2CCN(C(=O)CN3CCC(c4ccc(NC5CCC(=O)NC5=O)cc4)CC3)CC2)ccc1Nc1ncc(Cl)c(Nc2ccccc2P(C)(C)=O)n1 (stereo not shown) [Compound T-13]	100 to 1000	10 to 100	100 to 1000	70 to 100	≤ 10	
COc1cc(N2CCC(N(C)C(=O)CN3CCC(c4ccc(NC5CCC(=O)NC5=O)cc4)CC3)CC2)ccc1Nc1ncc(C(F)(F)F)c(Nc2ccccc2C(C)=O)n1 (stereo not shown) [Compound T-163]	100 to 1000	10 to 100	100 to 1000	50 to 70	100 to 1000	
COc1cc(N2CCN(C(=O)CN3CCC(c4ccc(NC5CCC(=O)NC5=O)cc4)CC3)CC2)ccc1Nc1ncc(C(F)(F)F)c(Nc2ccc(F)cc2F)n1 (stereo not shown) [Compound T-131]				< 50	10 to 100	
